Results from US9169255B2, “Caffeinated compounds and compositions for treatment of amyloid diseases and synucleinopathies” (ProteoTech Inc, priority 2011, dated 2015).

Legend:
[1] = Plasma and brain pharmacokinetics in mice after intraperitoneal injection; type: in vivo; settings: CD-1 female mice, i.p. injection at 50 mg/kg, 7-60 min post-dose; for AUC / Cmax: mouse, plasma, ip
Description: For select compounds in this invention, we have used wild type mice to determine the following plasma pharmacokinetic (PK) parameters: maximal concentration (Cmax), and area under the curve (AUC) as derived from a time versus concentration plot. We have also determined the maximal mouse brain levels, and overall brain exposure over time of select compounds in this invention, expressed as Cmax-brain and AUC-brain, respectively. In order to establish the method, we assessed brain and plasma compound levels over time utilizing 50 mg/kg intraperitoneal (i.p.) injections of 2 control compounds. […] In a typical experiment to assess the compounds in this invention, we used CD-1 female mice with a sample size (n) equal to 4 mice per post-dose time-point (for example, 7, 15, 30, and 60 min post-dose). We chose early time points to assess initial exposure, when we expected plasma and brain exposure to be the high, though we may have missed even higher exposure at earlier time points (between 0 and 7 minutes) since brain and plasma levels were highest in our study at the earliest time point assessed (7 minutes).
For the purpose of these studies, each compound was formulated at 5 mg/mL in 20% polyethylene glycol (PEG)-400 in PBS+0.1% ascorbic acid (w/v). The dose volume was 10 mL/kg of body weight. Mice were administered test compound via intraperitoneal injection, and at about 2-3 minutes before scheduled sacrifice, they were deeply anesthetized with 2.5% avertin. Once anesthetized, whole blood was removed by cardiac puncture, transferred to appropriate EDTA-containing tubes, and immediately chilled on ice. This was followed by complete perfusion of each mouse with >15 ml cold 0.9% saline by cannulation of the left ventricle and clamping of the descending aorta. Brains were harvested, frozen on dry ice and stored at −80° C. for bioanalysis of the test compound. Plasma was extracted from whole blood by standard centrifugation techniques within 1 hour. Compounds were (liquid-liquid) extracted from plasma and brain homogenates using ethyl acetate, followed by HPLC/MS quantitation using methods (i.e. HPLC gradients and mass spectrometry parameters) developed for these novel compounds. All methods established sufficient stability in relevant matrices and solvents, and used internal quantitation controls. Quantitation was achieved using a calibration curve generated with compounds spiked into the appropriate matrix (i.e. 20% PEG-400/PBS+0.1% ascorbic acid). We have established lower limit of quantitative sensitivities of 5-25 ng/ml (plasma) and 5-25 ng/g (brain), sufficient for these studies. Following determination of the brain and plasma concentrations at the various post-dose time points, select plasma (Cmax and AUC) and brain (Cmax-brain and AUC-brain) PK parameters were determined with WinNonLin software (Pharsight Inc). We compared the values determined for the compounds in this invention to the values for the positive control compound that when administered at the same therapeutically relevant route and dose level (i.p. injection at 50 mg/kg) is known to be present in the plasma and the brain at levels sufficient for a biological effect (i.e. reduction of α-synuclein brain levels and improved motor function; data not shown).

[2] = molecular target: T1, A53T-mutant human α-synuclein (Homo sapiens, UniProt P37840, A53T); experiment: Thioflavin S-positive aggregates in rotenone-treated BE-M17 cells overexpressing A53T α-synuclein; type: cell-based
T1 construct: expressed in transfected cells; host or cells: BE-M17 human neuroblastoma cells
Description: To test the therapeutic potential of the compounds, a cell-based assay was utilized. In this assay, rotenone is used to induce mitochondrial oxidative stress and cause α-synuclein aggregation. The assay utilizes the binding of the fluorescent dye Thioflavin S to structures with high β-sheet content, including α-synuclein fibrils. Therefore, quantitative assessment of the extent of Thioflavin S-positive staining of fixed cells is used to test the ability of the test compounds to inhibit/prevent or decrease the amount of α-synuclein aggregates relative to cells that were treated with rotenone only. This study is presented in the following examples.
BE-M17 human neuroblastoma cells stably transfected with A53T-mutant human α-synuclein were obtained. Cell culture reagents were obtained from Gibco/Invitrogen, and cells were grown in OPTIMEM supplemented with 10% FBS, Penicillin (100 units/ml), Streptomycin (100 μg/ml) and 500 μg/ml G418 as previously described (Ostrerova-Golts et al., J. Neurosci., 20:6048-6054, 2000).
Thioflavin S is commonly used to detect aggregated protein structures in situ, including in brain tissue (Vallet et al., Acta Neuropathol., 83:170-178, 1992), and cultured cells (Ostrerova-Golts et al., J. Neurosci., 20:6048-6054, 2000), whereas Thioflavin T is often used as an in vitro reagent to analyze the aggregation of soluble proteins into fibrils enriched in β-pleated sheet structures (LeVine III, Prot. Sci., 2:404-410, 1993). Therefore, Thioflavin S histochemistry was used on cultured cells to detect aggregates containing a high degree of β-pleated structures that formed in response to oxidative stress-inducing agents (in this case rotenone) as previously described, with minor modifications (Ostrerova-Golts et al., J. Neurosci., 20:6048-6054, 2000). Briefly, for these studies cells were grown on Poly-D-Lysine coated glass slide chambers at approximately 4.5−5.5×10^4 cells/cm^2. After 16-18 hours, cells were treated with 500 nM or 2 μM rotenone (Sigma) or vehicle (0.05% DMSO) as indicated. Within 15 minutes of rotenone (or vehicle) addition, compounds were added at the indicated concentration, or mock-treatment was performed in which cell culture media only (no compound) was added. Identical treatments were repeated after 48 hours. After an additional 24 hours, cells were fixed for 25 minutes in 3% paraformaldehyde. After a PBS wash and a deionized water wash, the cells were incubated with 0.015% Thioflavin S in 50% ethanol for 25 minutes, washed twice for four minutes in 50% ethanol and twice for five minutes in deionized water and then mounted using an aqueous-based mountant designed to protect against photobleaching. Aggregates that bind to Thioflavin S were detected with a fluorescent microscope using a High Q FITC filter set (480 to 535 nm bandwidth) and a 20× objective lens unless otherwise indicated. Between 8 and 20 (usually 16-18) representative images per condition were selected and imaged using Q Capture software by an experimenter who was blinded to treatment conditions. To assess the amount of Thioflavin S-positive aggregates, the total area per field covered by Thioflavin S-positive inclusions was determined by image analysis and quantitation. […] Spurious, non-cell associated fluorescence was manually removed. Unless indicated otherwise, comparisons between groups were made by comparing mean relative amounts of Thioflavin S-positive inclusions for a given treatment condition (i.e. cells treated with rotenone only versus cells treated with rotenone and test compound at a given concentration). Statistical analyses were performed with GraphPad Prism (GraphPad Inc). Differences between means (two samples) were assessed by the Student's t test. Differences among multiple means were assessed by one-factor ANOVA followed by Dunnett's post hoc test, compared to rotenone only treated cells. […]

Cn1cnc2c1c(=O)n(Cc1ccc(O)c(O)c1)c(=O)n2Cc1ccc(O)c(O)c1 [PD-150, 7-Methyl-1,3-bis(3′,4′-dihydroxy)benzylxanthine]
AUC-brain [1]: 3,048 min*ng/g | Cmax-brain [1]: 99.5 ng/g | AUC [1]: 2130 ng·h/mL | Cmax [1]: 3280 ng/mL

Cn1c(=O)n(Cc2ccc(O)c(O)c2)c(=O)c2c1ncn2Cc1ccc(O)c(O)c1 [PD-151, 3-Methyl-1,7-bis(3′,4′-dihydroxybenzyl)xanthine]
reduction of rotenone-induced Thioflavin S-positive aggregates relative to rotenone only-treated cells ([2]; 500 nM rotenone, 500 nM compound): 52% | reduction of rotenone-induced Thioflavin S-positive aggregates relative to rotenone only-treated cells ([2]; 500 nM rotenone, 2 μM compound): 84% | reduction of rotenone-induced Thioflavin S-positive aggregates relative to rotenone only-treated cells ([2]; 2 μM rotenone, 2 μM compound): 58% | reduction of rotenone-induced Thioflavin S-positive aggregates relative to rotenone only-treated cells ([2]; 2 μM rotenone, 5 μM compound): 60% | AUC-brain [1]: 2,147 min*ng/g | Cmax-brain [1]: 59.2 ng/g | AUC [1]: 3540 ng·h/mL | Cmax [1]: 5340 ng/mL

Cn1c(=O)c2c(ncn2Cc2ccc(O)c(O)c2)n(Cc2ccc(O)c(O)c2)c1=O [PD-152]
reduction of rotenone-induced Thioflavin S-positive aggregates relative to rotenone only-treated cells ([2]; 500 nM rotenone, 2 μM compound): 54% | reduction of rotenone-induced Thioflavin S-positive aggregates relative to rotenone only-treated cells ([2]; 500 nM rotenone, 5 μM compound): 55% | reduction of rotenone-induced Thioflavin S-positive aggregates relative to rotenone only-treated cells ([2]; 2 μM rotenone, 500 nM compound): 78% | reduction of rotenone-induced Thioflavin S-positive aggregates relative to rotenone only-treated cells ([2]; 2 μM rotenone, 2 μM compound): 79%
